Reference: article PMC9588780, “Purification and structural characterization of the Na^+-translocating ferredoxin: NAD^+ reductase (Rnf) complex of Clostridium tetanomorphum” (Nature Communications, 2022)

Assays:
[1] = molecular target: T1, Rnf complex (RnfABCDEG), RnfG site (Clostridium tetanomorphum, UniProt A0A923J084); experiment: cryo-EM structure ([…] Å); UV fluorescence on SDS-PAGE; type: binding; conditions: covalent; phosphoester to Thr164 of RnfG
T1 construct: native six-subunit membrane complex purified from C. tetanomorphum, in MSP1D1/DMPC nanodisc; RnfG 20 kDa; with Ion-translocating oxidoreductase complex subunit A; Ion-translocating oxidoreductase complex subunit B; Ion-translocating oxidoreductase complex subunit C; Ion-translocating oxidoreductase complex subunit D; Ion-translocating oxidoreductase complex subunit E
T1 sequence (A0A923J084 1-189, one chain of several): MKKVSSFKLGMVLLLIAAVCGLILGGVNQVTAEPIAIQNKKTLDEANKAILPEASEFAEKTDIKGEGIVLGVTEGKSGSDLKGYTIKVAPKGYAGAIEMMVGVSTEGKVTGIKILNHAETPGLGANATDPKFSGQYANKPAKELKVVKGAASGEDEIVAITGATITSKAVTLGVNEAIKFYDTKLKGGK
T1 sequence (A0A923J0P9 1-191 partner, one chain of several): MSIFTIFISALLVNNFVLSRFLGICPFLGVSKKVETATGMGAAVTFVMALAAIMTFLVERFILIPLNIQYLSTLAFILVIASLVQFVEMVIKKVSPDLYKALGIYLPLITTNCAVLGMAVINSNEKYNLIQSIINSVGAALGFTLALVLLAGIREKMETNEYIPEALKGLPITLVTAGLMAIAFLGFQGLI
T1 sequence (A0A923IZB8 1-202 partner, one chain of several): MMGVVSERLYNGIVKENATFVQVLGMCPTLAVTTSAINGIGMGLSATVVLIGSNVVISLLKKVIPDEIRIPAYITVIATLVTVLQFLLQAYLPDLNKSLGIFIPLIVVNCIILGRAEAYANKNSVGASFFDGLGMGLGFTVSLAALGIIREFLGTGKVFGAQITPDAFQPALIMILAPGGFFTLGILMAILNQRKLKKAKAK
T1 sequence (A0A923IZ11 1-435 partner, one chain of several): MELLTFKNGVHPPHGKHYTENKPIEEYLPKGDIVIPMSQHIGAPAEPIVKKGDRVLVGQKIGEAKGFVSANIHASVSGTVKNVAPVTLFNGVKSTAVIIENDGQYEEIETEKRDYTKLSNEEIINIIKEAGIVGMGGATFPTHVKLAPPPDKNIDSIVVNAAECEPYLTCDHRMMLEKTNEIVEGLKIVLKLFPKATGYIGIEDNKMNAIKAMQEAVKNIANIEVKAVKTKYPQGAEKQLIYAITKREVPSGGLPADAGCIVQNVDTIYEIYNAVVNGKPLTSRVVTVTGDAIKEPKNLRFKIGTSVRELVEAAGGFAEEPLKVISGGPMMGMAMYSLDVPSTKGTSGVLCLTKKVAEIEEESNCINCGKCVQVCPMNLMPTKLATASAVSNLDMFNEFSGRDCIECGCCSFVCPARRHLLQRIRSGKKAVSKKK

[2] = molecular target: T2, Rnf complex (RnfABCDEG), RnfD site (Clostridium tetanomorphum, UniProt A0A923IYK2); experiment: cryo-EM structure ([…] Å); type: binding
T2 construct: native six-subunit membrane complex purified from C. tetanomorphum, in MSP1D1/DMPC nanodisc; RnfD 33 kDa; with Ion-translocating oxidoreductase complex subunit A; Ion-translocating oxidoreductase complex subunit B; Ion-translocating oxidoreductase complex subunit C; Ion-translocating oxidoreductase complex subunit E; Ion-translocating oxidoreductase complex subunit G
T2 sequence (A0A923IZ11 1-435 partner, one chain of several): as above
T2 sequence (A0A923J0P9 1-191 partner, one chain of several): as the sequence (A0A923J0P9 1-191 partner, one chain of several) above
T2 sequence (A0A923IZB8 1-202 partner, one chain of several): as the sequence (A0A923IZB8 1-202 partner, one chain of several) above
T2 sequence (A0A923J084 1-189 partner, one chain of several): as the sequence (A0A923J084 1-189, one chain of several) above

[3] = molecular target: T3, Rnf complex (RnfABCDEG), RnfC site (Clostridium tetanomorphum, UniProt A0A923IZ11); experiment: NADH oxidation, hexacyanoferrate(III) reduction at […] nm; type: biochemical; conditions: 200 µM NADH, 100 µM hexacyanoferrate(III), 150 mM NaCl, 50 mM potassium phosphate pH 7.5, 0.05% DDM, room temperature, anaerobic
T3 construct: gene rsxC; native six-subunit membrane complex purified from C. tetanomorphum in DDM (MSP1D1/DMPC nanodisc for cryo-EM); RnfC 1-435, 47 kDa; complex ca. 200-250 kDa; with Ion-translocating oxidoreductase complex subunit A; Ion-translocating oxidoreductase complex subunit B; Ion-translocating oxidoreductase complex subunit D; Ion-translocating oxidoreductase complex subunit E; Ion-translocating oxidoreductase complex subunit G
T3 sequence (A0A923IZ11 1-435, one chain of several): as the sequence (A0A923IZ11 1-435 partner, one chain of several) above
T3 sequence (A0A923J0P9 1-191 partner, one chain of several): as the sequence (A0A923J0P9 1-191 partner, one chain of several) above
T3 sequence (A0A923IZB8 1-202 partner, one chain of several): as the sequence (A0A923IZB8 1-202 partner, one chain of several) above
T3 sequence (A0A923J084 1-189 partner, one chain of several): as the sequence (A0A923J084 1-189, one chain of several) above

[4] = molecular target: T3, Rnf complex (RnfABCDEG), RnfC site; experiment: coupled enzyme assay with Etf/butyryl-CoA dehydrogenase, […] nm; type: biochemical; conditions: reduced ferredoxin as electron donor (50 µM Fd), crotonyl-CoA, room temperature
[5] = molecular target: T4, RnfD subunit of the Na+-translocating ferredoxin:NAD+ reductase (Rnf) complex of Clostridium tetanomorphum (Clostridium tetanomorphum (endogenous …, UniProt A0A923IYK2 1-310, FMN covalently attached by its phospho group to the Thr153 hydroxy group)); experiment: cryo-EM structure; native Rnf complex of C. tetanomorphum reconstituted into a DMPC-filled MSP1D1 nanodisc; grids prepared in an anaerobic tent (95% N2, 5% H2); 88,423 particles, overall resolution 4.27 Å; conditions: both partners purified
T4 construct: native subunit of the purified Rnf complex; Also holds a riboflavin
T4 sequence (looked up): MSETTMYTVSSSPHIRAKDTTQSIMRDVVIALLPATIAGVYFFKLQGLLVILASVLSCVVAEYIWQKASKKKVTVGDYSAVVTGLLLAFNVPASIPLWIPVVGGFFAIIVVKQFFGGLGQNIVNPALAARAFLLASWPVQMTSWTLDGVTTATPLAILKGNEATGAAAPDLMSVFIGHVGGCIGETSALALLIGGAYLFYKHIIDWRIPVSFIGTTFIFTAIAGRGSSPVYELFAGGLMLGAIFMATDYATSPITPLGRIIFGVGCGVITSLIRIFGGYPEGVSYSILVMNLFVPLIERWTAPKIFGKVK

Cc1cc2nc3c(=O)[nH]c(=O)nc-3n(C[C@H](O)[C@H](O)[C@H](O)COP(=O)(O)O)c2cc1C [FMN]
cryo-EM structure (4.27 Å); UV fluorescence on SDS-PAGE [1]: FMN is covalently attached via its phospho group to the conserved Thr164 | cryo-EM structure (4.27 Å) ([2]; covalent, phosphoester to Thr153 of RnfD (covalent FMN seen in structure; RnfD band not detected by UV on SDS-PAGE)): The phospho group of FMNRnfD is covalently attached to the well-conserved Thr153 hydroxy group

NC(=O)C1=CN([C@@H]2O[C@H](COP(=O)(O)OP(=O)(O)OC[C@H]3O[C@@H](n4cnc5c(N)ncnc54)[C@H](O)[C@@H]3O)[C@@H](O)[C@H]2O)C=CC1 [NADH]
NADH oxidation, hexacyanoferrate(III) reduction at 420 nm [3]: using hexacyanoferrate(III) as electron acceptor for NADH oxidation

NC(=O)c1ccc[n+]([C@@H]2O[C@H](COP(=O)(O)OP(=O)(O)OC[C@H]3O[C@@H](n4cnc5c(N)ncnc54)[C@H](O)[C@@H]3O)[C@@H](O)[C@H]2O)c1 [NAD^+]
coupled enzyme assay with Etf/butyryl-CoA dehydrogenase, 340 nm [4]: The biological relevant NAD^+ reduction with Fdred was determined with a coupled enzyme assay

Cc1cc2nc3c(=O)[nH]c(=O)nc-3n(C[C@H](O)[C@H](O)[C@H](O)CO)c2cc1C [RBF, riboflavin]
cryo-EM structure (4.27 Å) ([2]; cytoplasmic half-channel pocket of RnfD near Asn124 and Asp248, density assigned with help of A. vinelandii Rnf structure): the density becomes interpretable as riboflavin

B1: RnfB subunit of the Na+-translocating ferredoxin:NAD+ reductase (Rnf) complex of Clostridium tetanomorphum (natural protein, UniProt A0A923E755 1-274, looked up)
chain: MEGLLFPVLSLGGLGVVFGLLLGYASKKFAVEVDERVPMVRAALPGANCGGCGFAGCDAYADAVVNAGAKPNGCPVGGAACAAKIAEIMGVVVDSSEPKKAYVKCQGTCDKAKEKYEYYGAMTCVDAANIPGAGSKTCGFGCLGLGSCVQVCAFDAIHVENGIAVVDEEACTGCGACVSICPKSVIELTPMSKKVRISCNSHDKGIEVKNACSVGCLSCGLCVRNCPSEAITMVNNLPVIDYDKCTQCGVCVGKCPTKAIVNLNTNVSKEASNN
notes: native subunit of the purified Rnf complex; Carries five reliably identified [4Fe-4S] clusters; a sixth in FdI is held likely; also called ferredoxin subunit RnfB
binding result [5]: binds
